Measurements reported in patent publication US20250230165A1, “HETEROCYCLIC COMPOUNDS FOR USE IN THE TREATMENT OF CANCER” (ARTIOS PHARMA LIMITED, priority 2021, published 2025).

Target: T1, Human Polθ polymerase domain (aa1820-2590) (Homo sapiens, UniProt O75417)
T1 construct: Human Polθ polymerase domain (aa1820-2590) was expressed in E. coli; made in house; host or cells: E. coli
T1 sequence (O75417 1820-2590): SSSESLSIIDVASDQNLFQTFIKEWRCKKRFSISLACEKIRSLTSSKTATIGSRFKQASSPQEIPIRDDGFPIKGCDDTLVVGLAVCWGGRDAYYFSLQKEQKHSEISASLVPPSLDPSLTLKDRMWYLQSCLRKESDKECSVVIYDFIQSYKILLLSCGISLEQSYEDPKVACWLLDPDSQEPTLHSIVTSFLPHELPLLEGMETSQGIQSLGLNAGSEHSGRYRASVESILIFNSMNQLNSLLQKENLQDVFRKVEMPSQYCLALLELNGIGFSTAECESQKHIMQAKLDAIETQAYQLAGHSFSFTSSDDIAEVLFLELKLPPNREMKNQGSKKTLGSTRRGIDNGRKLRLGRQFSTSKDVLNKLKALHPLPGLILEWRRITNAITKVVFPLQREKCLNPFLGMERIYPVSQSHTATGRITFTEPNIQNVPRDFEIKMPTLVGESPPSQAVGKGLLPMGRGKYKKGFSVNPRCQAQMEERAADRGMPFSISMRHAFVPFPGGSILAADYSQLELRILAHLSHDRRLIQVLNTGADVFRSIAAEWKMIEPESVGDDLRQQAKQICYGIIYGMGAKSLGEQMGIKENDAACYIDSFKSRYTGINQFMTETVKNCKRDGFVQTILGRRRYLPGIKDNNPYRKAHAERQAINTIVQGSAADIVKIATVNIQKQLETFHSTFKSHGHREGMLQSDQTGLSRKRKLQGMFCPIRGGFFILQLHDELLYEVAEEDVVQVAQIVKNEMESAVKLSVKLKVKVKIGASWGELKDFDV
Assay: Polθ Polymerase Domain Kinact/KI Assay (PicoGreen)
Assay type: biochemical
Conditions: 0.8 nM Polθ, 100 nM DNA substrate, kobs vs [I] fit for 2-step covalent inhibitor
Method: Polθ Polymerase Domain Kinact/KI Assay
A PicoGreen assay was used to measure the Kinact and KI values of covalent compounds that inhibit the activity of Polθ in vitro.
Human Polθ polymerase domain (aa1820-2590) was expressed in E. coli, purified, aliquoted and stored at −80° C. until required. Polθ substrate was generated from a 1.2:1 mix of DNA II Short to DNA II Long to give a final concentration of […] substrate in annealing buffer (20 mM Tris pH 7.5, 50 mM NaCl). The substrate was heated in […] aliquots to 95° C. in a heating block for 5 min before the heating block switched off, the reaction left to cool to rt and stored at −20° C. until required.
Assay measurements were performed with 1× buffer comprising 25 mM Tris pH 7.5, 12.5 mM NaCl, […], 5% (v/v) glycerol, 0.01% v/v Triton x-100, 0.1 mg/ml BSA, 1 mM DTT. Test compounds were prepared by dilution in 100% DMSO to give a 12 μM intermediate stock of each (100× final top concentration). 100 nL of 23×1:1.5-fold serial dilutions and a DMSO only control were dispensed using the Tecan dispenser into Greiner 384 well black low volume plates (product code 784076). DMSO concentration was maintained at 1% of the final assay volume by back filling with DMSO.
2× Working stock of substrate (200 nM of DNA substrate and […] dNTPs) and enzyme ([…] PolΘ) were made up in assay buffer. 5 μL/well of both enzyme and substrate 2× solutions were dispensed using a Tempest dispenser (Formulatrix) into assay plates that had been pre-dispensed with compound to give a final assay concentration of 100 nM DNA substrate, […] dNTPs and 0.8 nM Polθ. To stop the reaction, […] of a solution containing 25 mM Tris-HCl pH 7.5 and 20 mM EDTA was added at […] (t=0, 2.5, 5, 7.5, 10, 12.5, 15, 20, 25, 30, 35, 40, 45, 50, 55 and 60 min) using the Tempest's time delay function. The plates were covered during the time course to prevent evaporation. After completing the assay, 5 μL of detection reagent (25 mM Tris-HCl pH 7.5 and 2.5% (v/v) PicoGreen) was dispensed into the wells using a Tempest liquid handler (Formulatrix) and plates subsequently read on the CLARIOstar Plus (BMG Labtech) using the default optical settings for fluorescein and the auto gain/focus settings.
All data analysis was carried out using GraphPad Prism V.8 (GraphPad Software Inc, San Diego, CA) Time course data for each inhibitor concentration was fitted to equation 1 to determine kobs values.^1 Any time points where the control (DMSO alone) reaction was no longer linear were excluded from the analysis. 1) Evaluation of Enzyme Inhibitors in Drug Discovery (Ch9), R. A Copeland, Wiley, 2nd Edition 2013.
A secondary plot of kobs vs [I] is used to determine the Kinact and KI parameters (for a 2-step covalent inhibitor) by fitting to equation 2.^1

C=CC(=O)N1CC2(C1)N[C@H](C)CN(CCN1C[C@H]3CC(=O)N(c4cc(C(F)(F)F)cc(C)n4)[C@@H]3C(=O)N(C)c3cccc(F)c31)C2C (mixture of isomers) [Example 37b, (3aR,11aS)-5-(2-((6R,9R/S)-2-acryloyl-6,9-dimethyl-2,5,8-triazaspiro[3.5]nonan-8-yl)ethyl)-6-fluoro-10-methyl-1-(6-methyl-4-(trifluoromethyl)pyridin-2-yl)-1,3a,4,5,10,11a-hexahydro-2H-benzo[b]pyrrolo[2,3-f][1,4]diazocine-2,11(3H)-dione]
Kinact/Kl: 580000 M⁻¹ s⁻¹

C=CC(=O)N1CC(=O)N2CCN(CCN3C[C@H]4CC(=O)N(c5cc(C(F)(F)F)cc(C)n5)[C@@H]4C(=O)N(C)c4cccc(F)c43)CC2C1 (mixture of isomers) [Example 62a, (3aR,11aS)-5-(2-((R/S)-8-acryloyl-6-oxooctahydro-2H-pyrazino[1,2-a]pyrazin-2-yl)ethyl)-6-fluoro-10-methyl-1-(6-methyl-4-(trifluoromethyl)pyridin-2-yl)-1,3a,4,5,10,11a-hexahydro-2H-benzo[b]pyrrolo[2,3-f][1,4]diazocine-2,11(3H)-dione]
Kinact/Kl: 3.31e+06 M⁻¹ s⁻¹

C=CC(=O)N1CC(=O)N2CCN(CCN3C[C@H]4CC(=O)N(c5cc(C(F)(F)F)cc(C)n5)[C@@H]4C(=O)N(C)c4cccc(F)c43)CC2C1 (mixture of isomers) [Example 62b, (3aR,11aS)-5-(2-((S/R)-8-acryloyl-6-oxooctahydro-2H-pyrazino[1,2-a]pyrazin-2-yl)ethyl)-6-fluoro-10-methyl-1-(6-methyl-4-(trifluoromethyl)pyridin-2-yl)-1,3a,4,5,10,11a-hexahydro-2H-benzo[b]pyrrolo[2,3-f][1,4]diazocine-2,11(3H)-dione]
Kinact/Kl: 1.26e+06 M⁻¹ s⁻¹

Cc1cc(C(F)(F)F)cc(N2C(=O)C[C@@H]3CN(Cc4cn5c(n4)CN(C(=O)CCl)C(C)C5)c4c(Cl)cccc4N(C)C(=O)[C@H]32)n1 (mixture of isomers) [Example 73a, (3aR,11aS)-6-chloro-5-(((R/S)-7-(2-chloroacetyl)-6-methyl-5,6,7,8-tetrahydroimidazo[1,2-a]pyrazin-2-yl)methyl)-10-methyl-1-(6-methyl-4-(trifluoromethyl)pyridin-2-yl)-1,3a,4,5,10,11a-hexahydro-2H-benzo[b]pyrrolo[2,3-f][1,4]diazocine-2,11(3H)-dione]
Kinact/Kl: 39000 M⁻¹ s⁻¹

Cc1cc(C(F)(F)F)cc(N2C(=O)C[C@@H]3CN(Cc4cn5c(n4)CN(C(=O)CCl)C(C)C5)c4c(Cl)cccc4N(C)C(=O)[C@H]32)n1 (mixture of isomers) [Example 73b, (3aR,11aS)-6-chloro-5-(((S/R)-7-(2-chloroacetyl)-6-methyl-5,6,7,8-tetrahydroimidazo[1,2-a]pyrazin-2-yl)methyl)-10-methyl-1-(6-methyl-4-(trifluoromethyl)pyridin-2-yl)-1,3a,4,5,10,11a-hexahydro-2H-benzo[b]pyrrolo[2,3-f][1,4]diazocine-2,11(3H)-dione]
Kinact/Kl: 790000 M⁻¹ s⁻¹

C=CC(=O)N1CCN2CCN(C(=O)CN3C[C@H]4CC(=O)N(c5cc(C(F)(F)F)cc(C)n5)[C@@H]4C(=O)N(C)c4cccc(F)c43)CC2C1 (mixture of isomers) [Example 76a, (3aR,11aS)-5-(2-((R/S)-8-acryloyloctahydro-2H-pyrazino[1,2-a]pyrazin-2-yl)-2-oxoethyl)-6-fluoro-10-methyl-1-(6-methyl-4-(trifluoromethyl)pyridin-2-yl)-1,3a,4,5,10,11a-hexahydro-2H-benzo[b]pyrrolo[2,3-f][1,4]diazocine-2,11(3H)-dione]
Kinact/Kl: 220000 M⁻¹ s⁻¹
